Measured values reported in ChEMBL document CHEMBL2010722, “Structure-activity relationship study of beta-carboline derivatives as haspin kinase inhibitors” (Bioorg Med Chem Lett, 2012).

Assays:
[1] = biological target: Tyrosine-protein kinase Lyn (Homo sapiens) (UniProt P07948); test: Inhibition of LYNb at 10 uM
[2] = biological target: Serine/threonine-protein kinase BRSK2 (Homo sapiens) (UniProt Q8IWQ3); test: Inhibition of BRSK2 at 10 uM
[3] = biological target: Tyrosine-protein kinase ABL2 (Homo sapiens) (UniProt P42684); test: Inhibition of ARG at 10 uM
[4] = biological target: CDK6/cyclin D3 (Homo sapiens) (UniProt P30281+Q00534); test: Inhibition of CDK6-CycD3 at 10 uM; type: protein-complex assay
[5] = biological target: Fibroblast growth factor receptor 3 (Homo sapiens) (UniProt P22607); test: Inhibition of FGFR3 at 10 uM
[6] = biological target: Dual specificity tyrosine-phosphorylation-regulated kinase 1B (Homo sapiens) (UniProt Q9Y463); test: Inhibition of DYRK1B at 10 uM
[7] = biological target: cGMP-dependent protein kinase 2 (Homo sapiens) (UniProt Q13237); test: Inhibition of CGK2 at 10 uM
[8] = biological target: Tyrosine-protein kinase receptor TYRO3 (Homo sapiens) (UniProt Q06418); test: Inhibition of TYRO3 at 10 uM
[9] = biological target: Dual specificity mitogen-activated protein kinase kinase 2 (Homo sapiens) (UniProt P36507); test: Inhibition of MAP2K2 at 10 uM
Dual specificity mitogen-activated protein kinase kinase 2 (Homo sapiens), sequence (P36507 whole entry): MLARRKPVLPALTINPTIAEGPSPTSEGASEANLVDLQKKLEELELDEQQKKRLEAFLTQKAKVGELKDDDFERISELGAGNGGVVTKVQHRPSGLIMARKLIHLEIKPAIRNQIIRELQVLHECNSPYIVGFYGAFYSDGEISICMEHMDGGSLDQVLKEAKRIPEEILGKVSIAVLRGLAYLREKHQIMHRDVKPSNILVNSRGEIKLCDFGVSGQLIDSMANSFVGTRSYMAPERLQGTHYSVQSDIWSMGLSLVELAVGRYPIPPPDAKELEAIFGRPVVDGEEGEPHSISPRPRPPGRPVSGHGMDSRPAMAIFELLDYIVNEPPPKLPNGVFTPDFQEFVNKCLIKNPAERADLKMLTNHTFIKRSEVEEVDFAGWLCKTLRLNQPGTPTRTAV

[10] = biological target: Interferon-induced, double-stranded RNA-activated protein kinase (Homo sapiens) (UniProt P19525); test: Inhibition of PKR at 10 uM
[11] = biological target: Ephrin type-B receptor 3 (Homo sapiens) (UniProt P54753); test: Inhibition of EPHB3 at 10 uM
Ephrin type-B receptor 3 (Homo sapiens), sequence (P54753 whole entry): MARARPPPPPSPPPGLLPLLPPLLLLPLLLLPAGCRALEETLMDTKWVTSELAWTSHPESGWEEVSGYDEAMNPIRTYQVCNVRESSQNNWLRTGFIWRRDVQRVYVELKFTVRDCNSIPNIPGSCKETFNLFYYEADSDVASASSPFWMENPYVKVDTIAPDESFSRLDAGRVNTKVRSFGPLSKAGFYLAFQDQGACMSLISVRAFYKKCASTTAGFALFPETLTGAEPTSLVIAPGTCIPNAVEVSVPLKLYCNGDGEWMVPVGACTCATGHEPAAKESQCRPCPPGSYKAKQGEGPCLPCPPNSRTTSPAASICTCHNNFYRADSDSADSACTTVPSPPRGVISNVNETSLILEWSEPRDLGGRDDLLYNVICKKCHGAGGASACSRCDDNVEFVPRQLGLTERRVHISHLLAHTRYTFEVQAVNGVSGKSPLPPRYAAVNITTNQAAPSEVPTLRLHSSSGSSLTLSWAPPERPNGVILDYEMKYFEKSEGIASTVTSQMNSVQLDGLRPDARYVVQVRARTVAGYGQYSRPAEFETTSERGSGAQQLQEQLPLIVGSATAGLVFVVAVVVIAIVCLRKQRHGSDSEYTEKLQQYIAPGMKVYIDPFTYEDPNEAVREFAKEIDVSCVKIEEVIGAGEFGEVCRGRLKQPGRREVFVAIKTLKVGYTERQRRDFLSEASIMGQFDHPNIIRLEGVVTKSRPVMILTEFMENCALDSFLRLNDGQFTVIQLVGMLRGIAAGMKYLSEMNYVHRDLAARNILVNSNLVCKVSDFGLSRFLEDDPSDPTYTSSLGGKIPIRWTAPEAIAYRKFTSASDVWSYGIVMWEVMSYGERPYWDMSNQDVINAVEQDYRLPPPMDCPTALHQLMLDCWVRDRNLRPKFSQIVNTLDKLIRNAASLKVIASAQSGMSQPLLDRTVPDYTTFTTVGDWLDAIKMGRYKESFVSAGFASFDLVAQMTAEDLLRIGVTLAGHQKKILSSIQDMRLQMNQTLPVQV

[12] = biological target: Insulin receptor-related protein (Homo sapiens) (UniProt P14616); test: Inhibition of IRR at 10 uM
[13] = biological target: RAC-beta serine/threonine-protein kinase (Homo sapiens) (UniProt P31751); test: Inhibition of AKT2 at 10 uM
[14] = biological target: Tyrosine-protein kinase CSK (Homo sapiens) (UniProt P41240); test: Inhibition of CSK at 10 uM
[15] = biological target: Ephrin type-A receptor 5 (Homo sapiens) (UniProt P54756); test: Inhibition of EPHA5 at 10 uM
[16] = system: Hepatocyte growth factor receptor (Homo sapiens), P08581 [Y1235D]; test: Inhibition of MET Y1235D mutant at 10 uM
[17] = biological target: Macrophage colony-stimulating factor 1 receptor (Homo sapiens) (UniProt P07333); test: Inhibition of FMS at 10 uM
Macrophage colony-stimulating factor 1 receptor (Homo sapiens), sequence (P07333 whole entry): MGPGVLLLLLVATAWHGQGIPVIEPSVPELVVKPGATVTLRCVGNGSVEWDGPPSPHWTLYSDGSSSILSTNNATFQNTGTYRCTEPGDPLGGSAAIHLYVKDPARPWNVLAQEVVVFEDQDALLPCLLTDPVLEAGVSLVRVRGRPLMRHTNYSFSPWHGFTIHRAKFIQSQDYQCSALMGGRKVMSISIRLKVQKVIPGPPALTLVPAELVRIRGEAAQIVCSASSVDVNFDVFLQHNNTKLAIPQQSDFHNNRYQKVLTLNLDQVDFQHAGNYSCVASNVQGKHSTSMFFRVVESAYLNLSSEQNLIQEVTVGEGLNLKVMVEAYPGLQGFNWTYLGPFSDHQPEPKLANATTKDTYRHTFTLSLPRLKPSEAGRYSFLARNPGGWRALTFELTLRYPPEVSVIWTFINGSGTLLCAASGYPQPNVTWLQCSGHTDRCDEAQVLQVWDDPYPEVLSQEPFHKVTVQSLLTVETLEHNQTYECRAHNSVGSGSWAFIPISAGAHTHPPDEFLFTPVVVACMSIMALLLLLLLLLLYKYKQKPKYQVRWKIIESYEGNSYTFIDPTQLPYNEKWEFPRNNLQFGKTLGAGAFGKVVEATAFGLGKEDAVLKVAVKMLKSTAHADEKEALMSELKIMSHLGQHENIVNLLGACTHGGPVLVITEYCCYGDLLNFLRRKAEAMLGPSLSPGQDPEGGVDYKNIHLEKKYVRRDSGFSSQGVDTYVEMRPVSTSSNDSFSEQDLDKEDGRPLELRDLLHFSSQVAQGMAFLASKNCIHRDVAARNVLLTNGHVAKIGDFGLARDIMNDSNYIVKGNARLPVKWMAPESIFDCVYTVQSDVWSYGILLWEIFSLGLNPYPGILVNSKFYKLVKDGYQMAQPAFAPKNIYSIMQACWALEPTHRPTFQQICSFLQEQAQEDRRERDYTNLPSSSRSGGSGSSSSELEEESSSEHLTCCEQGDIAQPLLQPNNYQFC

[18] = biological target: Serine/threonine-protein kinase PAK 4 (Homo sapiens) (UniProt O96013); test: Inhibition of PAK4 at 10 uM
[19] = biological target: Serine/threonine-protein kinase 4 (Homo sapiens) (UniProt Q13043); test: Inhibition of MST1 at 10 uM
[20] = biological target: Platelet-derived growth factor receptor beta (Homo sapiens) (UniProt P09619); test: Inhibition of PDGFRb at 10 uM
[21] = biological target: Rho-associated protein kinase 1 (Homo sapiens) (UniProt Q13464); test: Inhibition of ROCK1 at 10 uM
[22] = biological target: Proto-oncogene serine/threonine-protein kinase mos (Homo sapiens) (UniProt P00540); test: Inhibition of MOS at 10 uM
[23] = biological target: Ephrin type-A receptor 3 (Homo sapiens) (UniProt P29320); test: Inhibition of EPHA3 at 10 uM
Ephrin type-A receptor 3 (Homo sapiens), sequence (P29320 whole entry): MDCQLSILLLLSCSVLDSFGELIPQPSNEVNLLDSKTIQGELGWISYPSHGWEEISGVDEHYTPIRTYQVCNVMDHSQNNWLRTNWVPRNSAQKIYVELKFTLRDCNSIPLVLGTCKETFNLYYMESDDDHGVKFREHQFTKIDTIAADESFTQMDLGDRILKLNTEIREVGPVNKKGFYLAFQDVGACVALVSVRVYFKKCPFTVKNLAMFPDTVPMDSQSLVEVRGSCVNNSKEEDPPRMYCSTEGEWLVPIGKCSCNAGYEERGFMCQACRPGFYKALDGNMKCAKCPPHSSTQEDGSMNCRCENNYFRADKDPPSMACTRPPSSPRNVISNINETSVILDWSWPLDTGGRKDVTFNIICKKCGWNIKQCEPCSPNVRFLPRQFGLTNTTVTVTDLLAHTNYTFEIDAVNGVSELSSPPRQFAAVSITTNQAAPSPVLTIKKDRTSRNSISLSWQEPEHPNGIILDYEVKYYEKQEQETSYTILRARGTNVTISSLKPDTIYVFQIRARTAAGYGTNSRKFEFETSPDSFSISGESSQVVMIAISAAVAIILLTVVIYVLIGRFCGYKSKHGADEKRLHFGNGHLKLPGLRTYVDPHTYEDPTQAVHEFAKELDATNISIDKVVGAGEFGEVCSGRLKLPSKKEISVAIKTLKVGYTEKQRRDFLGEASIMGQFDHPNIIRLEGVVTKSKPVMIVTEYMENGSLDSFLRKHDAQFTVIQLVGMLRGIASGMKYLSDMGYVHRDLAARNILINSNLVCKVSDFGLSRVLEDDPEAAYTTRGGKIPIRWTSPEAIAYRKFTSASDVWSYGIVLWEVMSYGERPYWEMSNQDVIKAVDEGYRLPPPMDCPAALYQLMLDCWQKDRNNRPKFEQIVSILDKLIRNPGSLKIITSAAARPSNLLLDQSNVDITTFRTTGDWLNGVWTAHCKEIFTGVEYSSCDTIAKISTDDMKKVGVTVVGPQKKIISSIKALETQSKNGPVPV

[24] = biological target: Dual specificity protein kinase CLK2 (Homo sapiens) (UniProt P49760); test: Inhibition of CLK2 at 10 uM
[25] = biological target: Serine/threonine-protein kinase Sgk1 (Homo sapiens) (UniProt O00141); test: Inhibition of SGK at 10 uM
Serine/threonine-protein kinase Sgk1 (Homo sapiens), sequence (O00141 whole entry): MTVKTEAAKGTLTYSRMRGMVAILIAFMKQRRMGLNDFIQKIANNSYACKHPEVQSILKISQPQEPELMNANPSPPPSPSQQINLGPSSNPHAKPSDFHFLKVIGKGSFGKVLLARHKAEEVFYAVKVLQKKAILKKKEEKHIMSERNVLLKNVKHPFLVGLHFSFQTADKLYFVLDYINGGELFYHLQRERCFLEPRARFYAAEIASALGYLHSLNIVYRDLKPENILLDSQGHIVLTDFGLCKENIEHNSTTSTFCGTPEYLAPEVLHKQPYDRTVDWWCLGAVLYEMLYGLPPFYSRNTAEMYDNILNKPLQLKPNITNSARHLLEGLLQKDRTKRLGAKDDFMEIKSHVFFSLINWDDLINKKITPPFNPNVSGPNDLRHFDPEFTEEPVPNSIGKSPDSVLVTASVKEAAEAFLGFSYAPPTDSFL

[26] = biological target: Ribosomal protein S6 kinase alpha-5 (Homo sapiens) (UniProt O75582); test: Inhibition of MSK1 N-terminal at 10 uM
Ribosomal protein S6 kinase alpha-5 (Homo sapiens), sequence (O75582 whole entry, looked up): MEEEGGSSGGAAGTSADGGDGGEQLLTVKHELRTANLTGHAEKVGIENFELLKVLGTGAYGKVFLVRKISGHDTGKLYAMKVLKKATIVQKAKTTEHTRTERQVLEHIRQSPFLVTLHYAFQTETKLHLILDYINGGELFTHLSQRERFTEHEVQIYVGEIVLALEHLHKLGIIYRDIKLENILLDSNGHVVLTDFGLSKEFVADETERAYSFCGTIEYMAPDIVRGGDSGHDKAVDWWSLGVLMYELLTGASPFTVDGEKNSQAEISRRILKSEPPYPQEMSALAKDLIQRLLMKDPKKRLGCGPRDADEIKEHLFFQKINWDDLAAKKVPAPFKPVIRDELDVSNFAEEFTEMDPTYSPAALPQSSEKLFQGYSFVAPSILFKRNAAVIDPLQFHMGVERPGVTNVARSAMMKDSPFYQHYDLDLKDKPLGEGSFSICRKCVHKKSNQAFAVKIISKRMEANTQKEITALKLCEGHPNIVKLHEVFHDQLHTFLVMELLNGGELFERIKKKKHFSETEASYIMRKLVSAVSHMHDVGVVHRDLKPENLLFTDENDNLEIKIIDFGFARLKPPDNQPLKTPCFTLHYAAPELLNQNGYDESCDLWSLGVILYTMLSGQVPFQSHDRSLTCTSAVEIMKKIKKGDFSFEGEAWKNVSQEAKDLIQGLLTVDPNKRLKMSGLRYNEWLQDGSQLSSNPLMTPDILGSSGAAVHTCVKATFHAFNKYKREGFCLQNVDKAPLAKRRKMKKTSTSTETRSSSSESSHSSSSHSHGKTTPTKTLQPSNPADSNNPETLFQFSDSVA

[27] = biological target: PI3-kinase p110-alpha/p85-alpha (Homo sapiens) (UniProt P27986+P42336); test: Inhibition of PIK3CA/PIK3R1 at 10 uM; type: protein-complex assay
[28] = biological target: Ephrin type-A receptor 4 (Homo sapiens) (UniProt P54764); test: Inhibition of EPHA4 at 10 uM
[29] = biological target: Serine/threonine-protein kinase 38-like (Homo sapiens) (UniProt Q9Y2H1); test: Inhibition of NDR2 at 10 uM
[30] = biological target: Dual specificity mitogen-activated protein kinase kinase 5 (Homo sapiens) (UniProt Q13163); test: Inhibition of MAP2K5 at 10 uM
[31] = biological target: Protein kinase C beta type (Homo sapiens) (UniProt P05771); test: Inhibition of PKCbeta1 at 10 uM
[32] = biological target: MAP kinase-interacting serine/threonine-protein kinase 2 (Homo sapiens) (UniProt Q9HBH9); test: Inhibition of MNK2 at 10 uM
[33] = biological target: Calcium/calmodulin-dependent protein kinase type IV (Homo sapiens) (UniProt Q16566); test: Inhibition of CaMK4 at 10 uM
[34] = biological target: Serine/threonine-protein kinase BRSK1 (Homo sapiens) (UniProt Q8TDC3); test: Inhibition of BRSK1 at 10 uM
[35] = biological target: Epithelial discoidin domain-containing receptor 1 (Homo sapiens) (UniProt Q08345); test: Inhibition of DDR1 at 10 uM
[36] = biological target: Inhibitor of nuclear factor kappa-B kinase subunit beta (Homo sapiens) (UniProt O14920); test: Inhibition of IKKb at 10 uM
[37] = biological target: Tyrosine-protein kinase Fer (Homo sapiens) (UniProt P16591); test: Inhibition of FER at 10 uM
[38] = biological target: Cyclin-dependent kinase 7/ cyclin H (Homo sapiens) (UniProt P51946+P50613); test: Inhibition of CDK7-CycH-MAT1 at 10 uM; type: protein-complex assay
[39] = biological target: Serine/threonine-protein kinase PAK 3 (Homo sapiens) (UniProt O75914); test: Inhibition of PAK3 at 10 uM
[40] = biological target: Tyrosine-protein kinase Fyn (Homo sapiens) (UniProt P06241); test: Inhibition of FYN at 10 uM
[41] = biological target: Cyclin-dependent kinase 5/CDK5 activator 1 (Homo sapiens) (UniProt Q00535+Q15078); test: Inhibition of CDK5-p25 at 10 uM; type: protein-complex assay
[42] = biological target: Serine/threonine-protein kinase D2 (Homo sapiens) (UniProt Q9BZL6); test: Inhibition of PKD2 at 10 uM
[43] = system: Epidermal growth factor receptor (Homo sapiens), P00533 [L858R,T790M]; test: Inhibition of EGFR T790M/L858R mutant at 10 uM; type: protein assay
[44] = biological target: Serine/threonine-protein kinase 3 (Homo sapiens) (UniProt Q13188); test: Inhibition of MST2 at 10 uM
Serine/threonine-protein kinase 3 (Homo sapiens), sequence (Q13188 whole entry): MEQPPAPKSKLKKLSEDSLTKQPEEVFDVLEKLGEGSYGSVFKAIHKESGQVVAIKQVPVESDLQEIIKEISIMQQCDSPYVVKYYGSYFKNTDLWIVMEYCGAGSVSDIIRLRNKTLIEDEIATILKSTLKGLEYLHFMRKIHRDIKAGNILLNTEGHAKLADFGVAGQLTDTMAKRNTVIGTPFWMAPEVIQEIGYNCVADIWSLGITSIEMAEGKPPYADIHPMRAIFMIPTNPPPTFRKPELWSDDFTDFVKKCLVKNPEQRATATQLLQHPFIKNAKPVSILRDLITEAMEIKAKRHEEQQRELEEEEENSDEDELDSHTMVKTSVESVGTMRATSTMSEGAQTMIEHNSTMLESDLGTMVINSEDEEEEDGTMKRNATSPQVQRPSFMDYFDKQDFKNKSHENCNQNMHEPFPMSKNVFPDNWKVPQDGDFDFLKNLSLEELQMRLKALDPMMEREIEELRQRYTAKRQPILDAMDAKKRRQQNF

[45] = biological target: MAP kinase-activated protein kinase 5 (Homo sapiens) (UniProt Q8IW41); test: Inhibition of MAPKAPK5 at 10 uM
[46] = biological target: Tyrosine-protein kinase ABL1 (Homo sapiens) (UniProt P00519); test: Inhibition of ABL at 10 uM

SMILES: COc1ccc2c3ccnc(C(F)(F)F)c3n(CCCCN)c2c1
- inhibition [1]: 0%
- inhibition [2]: 30%
- inhibition [3]: 0%
- inhibition [4]: 28%
- inhibition [5]: 1%
- inhibition [6]: 98%
- inhibition [7]: 91%
- inhibition [8]: 16%
- inhibition [9]: 6%
- inhibition [10]: 6%
- inhibition [11]: 0%
- inhibition [12]: 0%
- inhibition [13]: 4%
- inhibition [14]: 5%
- inhibition [15]: 4%
- inhibition [16]: 2%
- inhibition [17]: 6%
- inhibition [18]: 13%
- inhibition [19]: 14%
- inhibition [20]: 73%
- inhibition [21]: 84%
- inhibition [22]: 16%
- inhibition [23]: 0%
- inhibition [24]: 99%
- inhibition [25]: 34%
- inhibition [26]: 36%
- inhibition [27]: 13%
- inhibition [28]: 0%
- inhibition [29]: 2%
- inhibition [30]: 1%
- inhibition [31]: 35%
- inhibition [32]: 34%
- inhibition [33]: 13%
- inhibition [34]: 34%
- inhibition [35]: 8%
- inhibition [36]: 30%
- inhibition [37]: 8%
- inhibition [38]: 93%
- inhibition [39]: 27%
- inhibition [40]: 8%
- inhibition [41]: 39%
- inhibition [42]: 84%
- inhibition [43]: 4%
- inhibition [44]: 3%
- inhibition [45]: 1%
- inhibition [46]: 3%
